From patent US7592160B2, “Processes for producing isomaltose and isomaltitol and use thereof” (Kabushiki Kaisha Hayashibara Seibutsu Kagaku Kenkyujo, priority 2001, dated 2009)

Legend:
Set-up in all cases: key: −: it showed no change; +: it showed a slight reduction of the color spot of the substrate and the formation of other reaction product; ++: it showed a high reduction of the color spot of the substrate and the formation of other reaction product; +++: it showed a substantial disappearance of the substrate spot and the formation of other reaction product
[1] = tested on: α-isomaltosylglucosaccharide-forming enzyme; assay: Action on saccharides as substrates (TLC), enzyme of C9 strain; format: biochemical, Bacillus globisporus C9 strain; conditions: two units/g substrate, substrate 2% (w/v), 30° C., pH 6.0, 24 hours
Description: (§1) To examine the saccharides in the supernatant, they were separated by developing twice on silica gel thin-layer chromatography (abbreviated as “TLC” hereinafter) using, as a developer, a mixture solution of n-butanol, pyridine, and water (=6:4:1 by volume), and, as a thin-layer plate, “[…]™ 60”, an aluminum plate (20×20 cm) for TLC commercialized by Merck & Co., Inc., Rahway, USA. The coloration of the separated total sugars by the sulfuric acid-methanol method and that of the reducing saccharides by the diphenylamine-aniline method detected a non-reducing saccharide positive at an Rf value of about 0.31 on the former detection method but negative on the latter detection method.
(§2) It was tested whether any saccharides can be used as substrates for α-isomaltosylglucosaccharide-forming enzyme. For the purpose, a solution of maltose, maltotriose, maltotetraose, maltopentaose, maltohexaose, maltoheptaose, isomaltose, isomaltotriose, panose, isopanose, α,α-trehalose, kojibiose, nigerose, neotrehalose, cellobiose, gentibiose, maltitol, maltotriitol, lactose, sucrose, erlose, selaginose, maltosyl glucoside, or isomaltosyl glucoside was prepared.
(§3) To each of the above solutions was added two units/g substrate of a purified specimen of α-isomaltosylglucosaccharide-forming enzyme from either Bacillus globisporus C9 strain obtained by the method in Experiment 4-2, Bacillus globisporus C11 strain obtained by the method in Experiment 7-2, Bacillus globisporus N75 strain obtained by the method in Experiment 11-2, or Arthrobacter globiformis A19 strain obtained by the method in Experiment 15-2, and the resulting each solution was adjusted to give a substrate concentration of 2% (w/v) and incubated at 30° C. and pH 6.0 for 24 hours, except for using pH 8.4 for the enzyme from Arthrobacter globiformis A19 strain. The enzyme solutions before and after the enzymatic reactions were respectively analyzed on TLC disclosed in Experiment 1 to confirm whether the enzymes acted on these substrates.

[2] = tested on: α-isomaltosylglucosaccharide-forming enzyme; assay: Action on saccharides as substrates (TLC), enzyme of C11 strain; format: biochemical, Bacillus globisporus C11 strain; conditions: two units/g substrate, substrate 2% (w/v), 30° C., pH 6.0, 24 hours
Description: as §1, §2, §3

[3] = tested on: α-isomaltosylglucosaccharide-forming enzyme; assay: Action on saccharides as substrates (TLC), enzyme of N75 strain; format: biochemical, Bacillus globisporus N75 strain; conditions: two units/g substrate, substrate 2% (w/v), 30° C., pH 6.0, 24 hours
Description: as §1, §2, §3

[4] = tested on: α-isomaltosylglucosaccharide-forming enzyme; assay: Action on saccharides as substrates (TLC), enzyme of A19 strain; format: biochemical, Arthrobacter globiformis A19 strain; conditions: two units/g substrate, substrate 2% (w/v), 30° C., pH 8.4, 24 hours
Description: as §1, §2, §3

| Compound | Enzymatic action, Enzyme of C9 strain [1] | Enzymatic action, Enzyme of C11 strain [2] | Enzymatic action, Enzyme of N75 strain [3] | Enzymatic action, Enzyme of A19 strain [4] |
| --- | --- | --- | --- | --- |
| OC[C@H]1O[C@H](O[C@H]2[C@H](O)[C@@H](CO)OC(O)[C@@H]2O)[C@H](O)[C@@H](O)[C@@H]1O (stereo partly shown) [Nigerose, nigerose] | + | + | + | + |
| OC[C@H]1O[C@H](O[C@H]2[C@H](O)[C@@H](O)[C@H](O)O[C@@H]2CO)[C@H](O)[C@@H](O)[C@@H]1O [Maltose, maltose] | + | + | + | + |
| maltohexaose | +++ | +++ | +++ | +++ |
| isomaltosyl glucoside | − | − | − | − |
| OC[C@@H](O)[C@@H](O[C@H]1O[C@H](CO)[C@@H](O[C@H]2O[C@H](CO)[C@@H](O)[C@H](O)[C@H]2O)[C@H](O)[C@H]1O)[C@H](O)[C@@H](O)CO [Maltotriitol, maltotriitol] | + | + | + | + |
| OC[C@H]1O[C@H](O[C@H]2O[C@H](CO)[C@@H](O)[C@H](O)[C@H]2O[C@H]2O[C@H](CO)[C@@H](O)[C@H](O)[C@H]2O)[C@H](O)[C@@H](O)[C@@H]1O [Selaginose, selaginose] | − | − | − | − |
| OC[C@H]1O[C@H](O[C@H]2[C@H](O)[C@@H](O)[C@@H](OC[C@H]3OC(O)[C@H](O)[C@@H](O)[C@@H]3O)O[C@@H]2CO)[C@H](O)[C@@H](O)[C@@H]1O (stereo partly shown) [Isopanose, isopanose] | ++ | ++ | ++ | ++ |
| maltoheptaose | +++ | +++ | +++ | +++ |
| OC[C@H]1O[C@H](O[C@H]2C(O)O[C@H](CO)[C@@H](O)[C@@H]2O)[C@H](O)[C@@H](O)[C@@H]1O (stereo partly shown) [Kojibiose, kojibiose] | + | + | + | + |
| OC[C@H]1O[C@H](O[C@H]2O[C@H](CO)[C@@H](O[C@H]3O[C@H](CO)[C@@H](O)[C@H](O)[C@H]3O)[C@H](O)[C@H]2O)[C@H](O)[C@@H](O)[C@@H]1O [Maltosyl glucoside, maltosyl glucoside] | ++ | ++ | ++ | ++ |
| OC[C@H]1O[C@@](CO)(O[C@H]2O[C@H](CO)[C@@H](O[C@H]3O[C@H](CO)[C@@H](O)[C@H](O)[C@H]3O)[C@H](O)[C@H]2O)[C@@H](O)[C@@H]1O [Erlose, erlose] | + | + | + | + |
| maltotriose | ++ | ++ | ++ | ++ |
| OC[C@H]1O[C@H](O[C@H]2[C@H](O)[C@@H](O)[C@@H](O[C@H]3[C@H](O)[C@@H](O)[C@@H](O[C@H]4[C@H](O)[C@@H](O)C(O)O[C@@H]4CO)O[C@@H]3CO)O[C@@H]2CO)[C@H](O)[C@@H](O)[C@@H]1O (stereo partly shown) [Maltotetraose, maltotetraose] | +++ | +++ | +++ | +++ |
| maltopentaose | +++ | +++ | +++ | +++ |
| OC[C@H]1O[C@@H](O[C@H]2O[C@H](CO)[C@@H](O)[C@H](O)[C@H]2O)[C@H](O)[C@@H](O)[C@@H]1O [Neotrehalose, neotrehalose] | + | + | + | + |
| OC[C@H]1O[C@H](OC[C@H]2O[C@H](O[C@H]3[C@H](O)[C@@H](O)C(O)O[C@@H]3CO)[C@H](O)[C@@H](O)[C@@H]2O)[C@H](O)[C@@H](O)[C@@H]1O (stereo partly shown) [Panose, panose] | − | − | − | − |
